From patent EP3345917A1, “ANTIPROTOZOAL COMPOUNDS” (Bacoba AG, priority 2017, dated 2018)
Like-named read-outs stand apart in the source and are kept apart here. Starred links: 1 amine or outer side, 2 acyl side, 3 side chain; linkers in the order of their positions; H or OH if unused. Non-standard residues stand in square brackets, D forms with d. Residues, ends and D or L forms follow the SMILES beside them. *: point of attachment. Adamantane1carbonyl = O=C(C12CC3CC(CC(C3)C1)C2)*; ACHC(1S,2R) = O=C([C@H]1CCCC[C@H]1N[*:1])[*:2]; NH((S)CH(Me)CH2NMe2) = C[C@@H](CN(C)C)N*; NH(1-CH2NMe2-cBu) = CN(C)CC1(N*)CCC1; Gly(octyl) = CCCCCCCC[C@H](N)C(=O)O; Oxazole4CO(2-Me) = Cc1nc(C(=O)*)co1; X16 = COc1ccc2cc(C(=O)*)c(=O)oc2c1; X19 = O=C(c1ccnc2cc(Cl)ccc12)*; X17 = C[C@@H](CN1CCOCC1)N*; X22 = CC1CC(C)CN(CCN*)C1; Hexanoyl = CCCCCC(=O)*; Aib = CC(C)(N)C(=O)O; Bz = O=C(c1ccccc1)*; βAla = NCCC(=O)O

Tests used:
[1] = test system: Trypanosoma brucei rhodesiense (STIB 900 strain); assay: Alamar Blue assay against Trypanosoma brucei rhodesiense grown in axenic medium; format: cell-based; conditions: In vitro inhibition, read-out: T.b.rhod.
Summary of the method: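 Alamar Blue-based IC50 determination, in triplicate, on axenically grown STIB 900 trypanosomes. Melarsoprol included as reference.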

[2] = test system: Trypanosoma cruzi trypomastigote forms (Tulahuen strain); assay: Intracellular Trypanosoma cruzi assay in L6-cells, beta-galactosidase/CPRG readout; format: cell-based; conditions: In vitro inhibition, read-out: T.cruzi.
Summary of the method: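 Readout was β-galactosidase cleavage of CPRG, read photometrically at 540 nm after 2–6 h colour development, giving IC50 values. Parasites: LacZ-expressing Tulahuen C2C4 strain grown in rat L6 myoblasts; run in triplicate.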

[3] = test system: Axenically grown Leishmania donovani amastigotes (strain MHOM/ET/67/L82); assay: Axenic Leishmania donovani amastigote resazurin assay; format: cell-based; conditions: In vitro inhibition, read-out: L.don. ax
Summary of the method: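 IC50 values derive from resazurin fluorescence (ex 536 nm, em 588 nm), expressed relative to the negative control, after 2-4 hours of plate development. Axenic amastigotes of strain MHOM/ET/67/L82 were used; each test run in triplicate.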

[4] = test system: intracellular Leishmania donovani (L.don. InMac); assay: Intracellular Leishmania donovani assay (L.don. InMac); format: cell-based; conditions: In vitro inhibition
From the text: (§1) Tests were done in triplicate.

[5] = test system: Plasmodium falciparum; assay: 3H-hypoxanthine incorporation assay against Plasmodium falciparum; format: cell-based; conditions: In vitro inhibition, read-out: P.falc NF5
Experimental: as §1
IC50 values were calculated by linear interpolation.

[6] = Cytotoxicity assay on L6-cells (Alamar Blue); conditions: rat, Cytotox L6, Cytotoxicity against rat myoblast cells (L6)

| IC50 ([3]; axenic Leishmania donovani) [nM] | Compound | IC50 [1] [nM] | IC50 [2] [nM] | IC50 [3] [nM] | IC50 [4] [nM] | IC50 [5] [nM] | IC50 at 70 h [6] [nM] |
| --- | --- | --- | --- | --- | --- | --- | --- |
| – | CCCCCCCC[C@H](NC(=O)[C@@H]1CCCN1C(=O)c1ccccc1)C(=O)N[C@@H](CC(C)C)C(=O)NC(C)(C)C(=O)N[C@@H](CC(C)C)C(=O)N[C@@H](CC(C)C)C(=O)NC(C)(C)C(=O)NC(C)(C)C(=O)NCCC(=O)N[C@@H](C)CN(C)C [Compound 5649, (2S)-2-{[(2S)-1-benzoylpyrrolidin-2-yl]formamido}-N-[(1S)-1-[(1-{[(1S)-1-{[(1S)-1-{[1-({1-[(2-{[(2S)-1-(dimethylamino)propan-2-yl]carbamoyl}ethyl)carbamoyl]-1-methylethyl}carbamoyl)-1-methylethyl]carbamoyl}-3-methylbutyl]carbamoyl}-3-methylbutyl]carbamoyl}-1-methylethyl)carbamoyl]-3-methylbutyl]decanamide] (Bz-P[Gly(octyl)]L[Aib]LL[Aib][Aib][βAla]-{NH((S)CH(Me)CH2NMe2)}) | 0.7 | 8.8 | 3.5 | 27.2 | 2.1 | – |
| – | CCCCCCCC[C@H](NC(=O)[C@@H]1CCCN1C(=O)c1ccnc2cc(Cl)ccc12)C(=O)N[C@@H](CC(C)C)C(=O)NC(C)(C)C(=O)N[C@@H](CC(C)C)C(=O)N[C@@H](CC(C)C)C(=O)NC(C)(C)C(=O)NC(C)(C)C(=O)NCCC(=O)N[C@@H](C)CN(C)C [Compound 5768, (2S)-2-{[(2S)-1-(7-chloroquinoline-4-carbonyl)pyrrolidin-2-yl]formamido}-N-[(1S)-1-[(1-{[(1S)-1-{[(1S)-1-{[1-({1-[(2-{[(2S)-1-(dimethylamino)propan-2-yl]carbamoyl}ethyl)carbamoyl]-1-methylethyl}carbamoyl)-1-methylethyl]carbamoyl}-3-methylbutyl]carbamoyl}-3-methylbutyl]carbamoyl}-1-methylethyl)carbamoyl]-3-methylbutyl]decanamide] (X19-P[Gly(octyl)]L[Aib]LL[Aib][Aib][βAla]-{NH((S)CH(Me)CH2NMe2)}) | 8.7 | 373 | 33.5 | 257 | 24.5 | – |
| – | CCCCCCCC[C@H](NC(=O)[C@@H]1CCCN1C(=O)c1cc2ccc(OC)cc2oc1=O)C(=O)N[C@@H](CC(C)C)C(=O)NC(C)(C)C(=O)N[C@@H](CC(C)C)C(=O)N[C@@H](CC(C)C)C(=O)NC(C)(C)C(=O)NC(C)(C)C(=O)NCCC(=O)N[C@@H](C)CN(C)C [Compound 5769, (2S)-N-[(1S)-1-[(1-{[(1S)-1-{[(1S)-1-{[1-({1-[(2-{[(2S)-1-(dimethylamino)propan-2-yl]carbamoyl}ethyl)carbamoyl]-1-methylethyl}carbamoyl)-1-methylethyl]carbamoyl}-3-methylbutyl]carbamoyl}-3-methylbutyl]carbamoyl}-1-methylethyl)carbamoyl]-3-methylbutyl]-2-{[(2S)-1-(7-methoxy-2-oxo-2H-chromene-3-carbonyl)pyrrolidin-2-yl]formamido}decanamide] (X16-P[Gly(octyl)]L[Aib]LL[Aib][Aib][βAla]-{NH((S)CH(Me)CH2NMe2)}) | 2.8 | 167 | 8.1 | 216 | 5.3 | – |
| – | CCCCCCCC[C@H](NC(=O)[C@@H]1CCCN1C(=O)C12CC3CC(CC(C3)C1)C2)C(=O)N[C@@H](CC(C)C)C(=O)NC(C)(C)C(=O)N[C@@H](CC(C)C)C(=O)N[C@@H](CC(C)C)C(=O)NC(C)(C)C(=O)NC(C)(C)C(=O)NCCC(=O)N[C@@H](C)CN(C)C [Compound 5770, (2S)-2-{[(2S)-1-(adamantane-1-carbonyl)pyrrolidin-2-yl]formamido}-N-[(1S)-1-[(1-{[(1S)-1-{[(1S)-1-{[1-({1-[(2-{[(2S)-1-(dimethylamino)propan-2-yl]carbamoyl}ethyl)carbamoyl]-1-methylethyl}carbamoyl)-1-methylethyl]carbamoyl}-3-methylbutyl]carbamoyl}-3-methylbutyl]carbamoyl}-1-methylethyl)carbamoyl]-3-methylbutyl]decanamide] (Adamantane1carbonyl-P[Gly(octyl)]L[Aib]LL[Aib][Aib][βAla]-{NH((S)CH(Me)CH2NMe2)}) | 0.6 | 101 | 1 | 338 | 3.3 | – |
| – | CCCCCCCC[C@H](NC(=O)[C@@H]1CCCN1C(=O)CCCCC)C(=O)N[C@@H](CC(C)C)C(=O)NC(C)(C)C(=O)N[C@@H](CC(C)C)C(=O)N[C@@H](CC(C)C)C(=O)NC(C)(C)C(=O)NC(C)(C)C(=O)NCCC(=O)NCCN1CC(C)CC(C)C1 (stereo partly drawn) [Compound 5885, (2S)-N-[(1S)-1-[(1-{[(1S)-1-{[(1S)-1-{[1-({1-[(2-{[2-(3,5-dimethylpiperidin-1-yl)ethyl]carbamoyl}ethyl)carbamoyl]-1-methylethyl}carbamoyl)-1-methylethyl]carbamoyl}-3-methylbutyl]carbamoyl}-3-methylbutyl]carbamoyl}-1-methylethyl)carbamoyl]-3-methylbutyl]-2-{[(2S)-1-hexanoylpyrrolidin-2-yl]formamido}decanamide] (Hexanoyl-P[Gly(octyl)]L[Aib]LL[Aib][Aib][βAla]-X22) | 0.2 | 42600 | 46800 | – | 0.9 | 45.6 |
| – | CCCCCCCC[C@H](NC(=O)[C@@H]1CCCN1C(=O)CCCCC)C(=O)N[C@@H](CC(C)C)C(=O)NC(C)(C)C(=O)N[C@@H](CC(C)C)C(=O)N[C@@H](CC(C)C)C(=O)NC(C)(C)C(=O)NC(C)(C)C(=O)NCCC(=O)N[C@@H](C)CN1CCOCC1 [Compound 5981, (2S)-2-{[(2S)-1-hexanoylpyrrolidin-2-yl]formamido}-N-[(1S)-3-methyl-1-[(1-methyl-1-{[(1S)-3-methyl-1-{[(1S)-3-methyl-1-{[1-methyl-1-({1-methyl-1-[(2-{[(2S)-1-(morpholin-4-yl)propan-2-yl]carbamoyl}ethyl)carbamoyl]ethyl}carbamoyl)ethyl]carbamoyl}butyl]carbamoyl}butyl]carbamoyl}ethyl)carbamoyl]butyl]decanamide] (Hexanoyl-P[Gly(octyl)]L[Aib]LL[Aib][Aib][βAla]-X17) | 17.9 | 723 | 0.2 | – | 35800 | 1080 |
| – | CCCCCCCC[C@H](NC(=O)[C@H]1CCCC[C@H]1NC(=O)c1ccccc1)C(=O)N[C@@H](CC(C)C)C(=O)NC(C)(C)C(=O)N[C@@H](CC(C)C)C(=O)N[C@@H](CC(C)C)C(=O)NC(C)(C)C(=O)NC(C)(C)C(=O)NCCC(=O)N[C@@H](C)CN(C)C [Compound 5982, N-[(1R,2S)-2-{[(1S)-1-{[(1S)-1-[(1-{[(1S)-1-{[(1S)-1-{[1-({1-[(2-{[(2S)-1-(dimethylamino)propan-2-yl]carbamoyl}ethyl)carbamoyl]-1-methylethyl}carbamoyl)-1-methylethyl]carbamoyl}-3-methylbutyl]carbamoyl}-3-methylbutyl]carbamoyl}-1-methylethyl)carbamoyl]-3-methylbutyl]carbamoyl}nonyl]carbamoyl}cyclohexyl]benzamide] (Bz-[ACHC(1S,2R)][Gly(octyl)]L[Aib]LL[Aib][Aib][βAla]-{NH((S)CH(Me)CH2NMe2)}) | 29200 | 47.1 | 0.9 | – | 12100 | 573 |
| – | CCCCCCCC[C@H](NC(=O)[C@@H]1CCCN1C(=O)c1coc(C)n1)C(=O)N[C@@H](CC(C)C)C(=O)NC(C)(C)C(=O)N[C@@H](CC(C)C)C(=O)N[C@@H](CC(C)C)C(=O)NC(C)(C)C(=O)N[C@@H](CC(C)C)C(=O)NCCC(=O)NC1(CN(C)C)CCC1 [Compound 6329, (2S)-N-[(1S)-1-[(1-{[(1S)-1-{[(1S)-1-[(1-{[(1S)-1-{[2-({1-[(dimethylamino)methyl]cyclobutyl}carbamoyl)ethyl]carbamoyl}-3-methylbutyl]carbamoyl}-1-methylethyl)carbamoyl]-3-methylbutyl]carbamoyl}-3-methylbutyl]carbamoyl}-1-methylethyl)carbamoyl]-3-methylbutyl]-2-{[(2S)-1-(2-methyl-1,3-oxazole-4-carbonyl)pyrrolidin-2-yl]formamido}decanamide] ({Oxazole4CO(2-Me)}-P[Gly(octyl)]L[Aib]LL[Aib]L[βAla]-{NH(1-CH2NMe2-cBu)}) | 0.08 | 4.6 | 0.17 | – | 0.17 | 398 |
| – | CCCCCCCC[C@H](NC(=O)[C@@H]1CCCN1C(=O)c1coc(C)n1)C(=O)N[C@@H](CC(C)C)C(=O)NC(C)(C)C(=O)NC(C)(C)C(=O)N[C@@H](CC(C)C)C(=O)N[C@@H](CC(C)C)C(=O)NC(C)(C)C(=O)NC(C)(C)C(=O)NCCC(=O)NC1(CN(C)C)CCC1 [Compound 6330, (2S)-N-[(1S)-1-({1-[(1-{[(1S)-1-{[(1S)-1-({1-[(1-{[2-({1-[(dimethylamino)methyl]cyclobutyl}carbamoyl)ethyl]carbamoyl}-1-methylethyl)carbamoyl]-1-methylethyl}carbamoyl)-3-methylbutyl]carbamoyl}-3-methylbutyl]carbamoyl}-1-methylethyl)carbamoyl]-1-methylethyl}carbamoyl)-3-methylbutyl]-2-{[(2S)-1-(2-methyl-1,3-oxazole-4-carbonyl)pyrrolidin-2-yl]formamido}decanamide] ({Oxazole4CO(2-Me)}-P[Gly(octyl)]L[Aib][Aib]LL[Aib][Aib][βAla]-{NH(1-CH2NMe2-cBu)}) | 0.2 | 36.3 | 0.72 | – | 0.24 | 1200 |
| 118 | CCCCCCCCCCCCCCCCOP(=O)([O-])OCC[N+](C)(C)C [Miltefosine] | – | – | – | 1200 | – | – |
